# Measurements: patent US10722514B2 (FLX Bio, Inc., priority 2017, dated 2020)
# Structures can show the parent of a compound that is named as a salt.
# Biological target: T1, recombinant full-length USP7 (Homo sapiens, UniProt Q93009)
# T1 construct: A 25 μl reaction volume containing recombinant full-length USP7 (62 pM)
# Experiment: USP7-mediated ubiquitin-rhodamine cleavage assay
# Type: biochemical
# Conditions: recombinant full-length USP7 62 pM; ubiquitin-rhodamine 100 nM; 30-minute incubation with compound, 1 hour reaction at room temperature; read-out: Potency: USP7 IC50
# In short: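 Rhodamine fluorescence read-out after acetic acid stop; IC50 by 4-parameter nonlinear regression. Enzyme at 62 pM, substrate ubiquitin-rhodamine 100 nM final, 1 h at room temperature in the dark, after 30 min compound preincubation. Buffer: HEPES pH 7.3, NaCl, TCEP, BSA; 1% DMSO.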
# T1 sequence (Q93009 whole entry): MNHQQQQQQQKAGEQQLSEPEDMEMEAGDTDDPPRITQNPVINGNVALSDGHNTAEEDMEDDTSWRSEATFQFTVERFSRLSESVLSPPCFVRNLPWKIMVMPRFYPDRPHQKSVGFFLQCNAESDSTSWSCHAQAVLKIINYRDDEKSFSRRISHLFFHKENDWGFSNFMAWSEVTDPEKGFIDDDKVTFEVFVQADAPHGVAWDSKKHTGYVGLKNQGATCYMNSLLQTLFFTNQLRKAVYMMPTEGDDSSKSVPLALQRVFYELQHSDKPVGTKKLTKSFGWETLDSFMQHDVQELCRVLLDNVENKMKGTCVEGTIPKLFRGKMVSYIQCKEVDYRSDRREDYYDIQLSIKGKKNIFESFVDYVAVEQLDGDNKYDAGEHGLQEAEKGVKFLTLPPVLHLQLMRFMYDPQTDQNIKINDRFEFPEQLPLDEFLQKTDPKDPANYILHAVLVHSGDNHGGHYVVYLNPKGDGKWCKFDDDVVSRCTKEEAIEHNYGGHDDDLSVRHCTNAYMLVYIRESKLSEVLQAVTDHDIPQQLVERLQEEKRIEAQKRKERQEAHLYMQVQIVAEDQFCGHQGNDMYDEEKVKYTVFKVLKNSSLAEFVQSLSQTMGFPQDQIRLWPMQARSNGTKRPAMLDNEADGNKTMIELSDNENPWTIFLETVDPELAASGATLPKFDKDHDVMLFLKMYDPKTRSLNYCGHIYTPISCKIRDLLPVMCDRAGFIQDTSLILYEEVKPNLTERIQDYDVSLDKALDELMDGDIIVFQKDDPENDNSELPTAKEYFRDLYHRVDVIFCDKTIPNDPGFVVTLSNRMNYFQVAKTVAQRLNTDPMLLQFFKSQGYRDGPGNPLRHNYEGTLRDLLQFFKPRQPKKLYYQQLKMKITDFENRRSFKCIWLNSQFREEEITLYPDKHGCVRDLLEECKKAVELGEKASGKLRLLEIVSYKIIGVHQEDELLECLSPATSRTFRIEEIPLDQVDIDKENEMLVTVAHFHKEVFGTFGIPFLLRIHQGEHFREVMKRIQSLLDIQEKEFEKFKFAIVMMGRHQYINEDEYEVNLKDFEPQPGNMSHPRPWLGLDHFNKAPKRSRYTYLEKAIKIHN
row,IC50,SMILES
1,10000 to 30000 nM,"Cc1cc(Cl)cc(-c2ncnc3cc(Cn4c(C(F)(F)F)cccc4=O)sc23)c1O[C@@H]1CNC[C@@H]1F [Example 148, 1-((4-(5-Chloro-2-(((3R,4S)-4-fluoropyrrolidin-3-yl)oxy)-3-methylphenyl)thieno[3,2-d]pyrimidin-6-yl)methyl)-6-(trifluoromethyl)pyridin-2(1H)-one]"
2,10000 to 30000 nM,"Cc1cc2nccc(-c3cc(C#N)cc(C)c3O[C@H]3CCCNC3)c2s1 [Example 182, (S)-3-Methyl-5-(2-methylthieno[3,2-b]pyridin-7-yl)-4-(piperidin-3-yloxy)benzonitrile]"
3,1000 to 10000 nM,"CCC(O)c1cc2ncnc(-c3cc(Cl)cc(C)c3OCC3CNC3)c2s1 (stereo not drawn) [Example 13, 1-(4-(2-(Azetidin-3-ylmethoxy)-5-chloro-3-methylphenyl)thieno[3,2-d]pyrimidin-6-yl)propan-1-ol]"
4,< 1000 nM,"Cc1cc(Cl)cc(-c2ccnc3cc(CN4C(=O)CCC4=O)sc23)c1OC1CCNC1C (stereo not drawn) [Example 118, 1-((7-(5-Chloro-3-methyl-2-((2-methylpyrrolidin-3-yl)oxy)phenyl)thieno[3,2-b]pyridin-2-yl)methyl)pyrrolidine-2,5-dione]"
5,< 1000 nM,"Cc1cc(Cl)cc(-c2ncnc3cc(CN4C(=O)C5C(C4=O)C5(C)C)sc23)c1O[C@@H]1CNCC(C)(C)C1 (stereo partly drawn) [Example 361, 3-[[4-[5-chloro-2-[[(3S)-5,5-dimethyl-3-piperidyl]oxy]-3-methyl-phenyl]thieno[3,2-d]pyrimidin-6-yl]methyl]-6,6-dimethyl-3-azabicyclo[3.1.0]hexane-2,4-dione]"
6,< 1000 nM,"Cc1cc(Cl)cc(-c2ccnc3cc(Cn4c(=O)ccn(CC(F)(F)F)c4=O)sc23)c1OC1(C)CNC1 [Example 279, 3-((7-(5-Chloro-3-methyl-2-((3-methylazetidin-3-yl)oxy)phenyl)thieno[3,2-b]pyridin-2-yl)methyl)-1-(2,2,2-trifluoroethyl)pyrimidine-2,4(1H,3H)-dione]"
7,1000 to 10000 nM,"CCC(O)c1cc2nccc(-c3cc(Cl)cc(C)c3OCC3CNC3)c2s1 (stereo not drawn) [Example 14, 1-(7-(2-(Azetidin-3-ylmethoxy)-5-chloro-3-methylphenyl)thieno[3,2-b]pyridin-2-yl)propan-1-ol]"
8,< 1000 nM,"Cc1cc(Cl)cc(-c2ccnc3cc([C@H](C)N4C(=O)C5C(C4=O)C5(C)C)sc23)c1OC1CCC(C)NC1 (stereo partly drawn) [Example 396, 3-[(1S)-1-[7-[5-chloro-3-methyl-2-[(6-methyl-3-piperidyl)oxy]phenyl]thieno[3,2-b]pyridin-2-yl]ethyl]-6,6-dimethyl-3-azabicyclo[3.1.0]hexane-2,4-dione; 2,2,2-trifluoroacetic acid]"
9,< 1000 nM,"Cc1cc(Cl)cc(-c2ccnc3cc(CN4C(=O)CCNC4=O)sc23)c1OC1CCNCC1 [Example 222, 3-((7-(5-Chloro-3-methyl-2-(piperidin-4-yloxy)phenyl)thieno[3,2-b]pyridin-2-yl)methyl)dihydropyrimidine-2,4(1H,3H)-dione]"
10,< 1000 nM,"Cc1cc(Cl)cc(-c2ccnc3cc(CN4C(=O)C5C(C4=O)C5(C)C)sc23)c1O[C@@H]1CCNC[C@@H]1C (stereo partly drawn) [Example 366, 3-[[7-[5-chloro-3-methyl-2-[[(3S,4R)-3-methyl-4-piperidyl]oxy]phenyl]thieno[3,2-b]pyridin-2-yl]methyl]-6,6-dimethyl-3-azabicyclo[3.1.0]hexane-2,4-dione dihydrochloride]"
11,1000 to 10000 nM,"Cc1cc(C#N)cc(-c2ccnc3ccsc23)c1OCC1(C)CNC1 [Example 44, 3-Methyl-4-((3-methylazetidin-3-yl)methoxy)-5-(thieno[3,2-b]pyridin-7-yl)benzonitrile]"
12,> 30000 nM,"Cc1cc(Cl)cc(-c2ccnc3ccsc23)c1O[C@H]1CCCN(C)C1 [Example 240, (S)-7-(5-Chloro-3-methyl-2-((1-methylpiperidin-3-yl)oxy)phenyl)thieno[3,2-b]pyridine]"

# Same assay, conditions: recombinant full-length USP7 62 pM; ubiquitin-rhodamine 100 nM; 30-minute incubation, 1 hour reaction at room temperature; read-out: Potency (USP7 IC50)
row,IC50,SMILES
1,< 1000 nM,"Cc1cc(Cl)cc(-c2ccnc3cc(Cn4c(=O)ccn(CC(F)(F)F)c4=O)sc23)c1OCC1(C(F)F)CNC1 [Example 673, 3-[[7-[5-chloro-2-[[3-(difluoromethyl)azetidin-3-yl]methoxy]-3-methyl-phenyl]thieno[3,2-b]pyridin-2-yl]methyl]-1-(2,2,2-trifluoroethyl)pyrimidine-2,4-dione]"
2,< 1000 nM,"Cc1cc(Cl)cc(-c2ccnc3cc(Cn4c(=O)ccn(CC(F)(F)F)c4=O)sc23)c1OC1CCC(F)(F)CC1 [Example 682, 3-[[7-[5-chloro-2-(4,4-difluorocycllohexoxy)-3-methyl-phenyl]thieno[3,2-b]pyridin-2-yl]methyl]-1-(2,2,2-trifluoroethyl)pyrimidine-2,4-dione]"
3,< 1000 nM,"Cc1cc(Cl)cc(-c2ccnc3cc(Cn4c(=O)ccn(CC(F)(F)F)c4=O)sc23)c1OC1COC1 [Example 671, 3-[[7-[5-chloro-3-methyl-2-(oxetan-3-yloxy)phenyl]thieno[3,2-b]pyridin-2-yl]methyl]-1-(2,2,2-trifluoroethyl)pyrimidine-2,4-dione]"

# Same assay, conditions: recombinant full-length USP7 62 pM; ubiquitin-rhodamine 100 nM; 30-minute pre-incubation, 1 hour reaction at room temperature; read-out: Potency (USP7 IC50)
row,IC50,SMILES
1,< 1000 nM,"CC(=O)N1CC[C@@H](Oc2c(C)cc(Cl)cc2-c2ccnc3cc(Cn4c(=O)ccn(CC(F)(F)F)c4=O)sc23)[C@@H](C)C1 [Example 607, 3-[[7-[2-[[(3S,4R)-1-acetyl-3-methyl-4-piperidyl]oxy]-5-chloro-3-methyl-phenyl]thineo[3,2-b]pyridin-2-yl]methyl]-1-(2,2,2-trifluoroethyl)pyrimidine-2,4-dione]"
2,< 1000 nM,"Cc1cc(Cl)cc(-c2ccnc3cc(CN4C(=O)CCC4=O)sc23)c1O[C@H]1CCCN(CC(=O)O)C1 [Example 579, 2-[(3S)-3-[4-chloro-2-[2-[(2,5-dioxopyrrolidin-1-yl)methyl]thieno[3,2-b]pyridin-7-yl]-6-methyl-phenoxy]-1-piperidyl]acetic acid]"
3,< 1000 nM,"CO[C@H]1CNC[C@H]1Oc1c(C)cc(Cl)cc1-c1ccnc2cc(Cn3c(=O)ccn(CC(F)(F)F)c3=O)sc12 [Example 655, 3-[[7-[5-chloro-2-[(3R,4S)-4-methoxypyrrolidin-3-yl]oxy-3-methyl-phenyl]thieno[3,2-b]pyridin-2-yl]methyl]-1-(2,2,2-trifluoroethyl)pyrimidine-2,4-dione]"
4,< 1000 nM,"Cc1cc(Cl)cc(-c2ccnc3cc(COc4nc(=O)ccn4CC(F)(F)F)sc23)c1O[C@H]1CNCC[C@H]1C [Example 615, 2-[[7-[5-chloro-3-methyl-2-[[(3R,4R)-4-methyl-3-piperidyl]oxy]phenyl]thieno[3,2-b]pyridin-2-yl]methoxy]-1-(2,2,2-trifluoroethyl)pyrimidin-4-one]"

# The next lines start with the compound.
row,SMILES,IC50
1,"Cc1cc(Cl)cc(-c2ccnc3cc(Cn4c(=O)ccn(CC(F)(F)F)c4=O)sc23)c1OC1CC2CC1CN2 (stereo not drawn) [Example 577, 3-[[7-[2-(2-azabicyclo[2.2.1]heptan-5-yloxy)-5-chloro-3-methyl-phenyl]thieno[3,2-b]pyridin-2-yl]methyl]-1-(2,2,2-trifluoroethyl)pyrimidine-2,4-dione; 2,2,2-trifluoroacetic acid]",< 1000 nM
2,"Cc1cc(C(F)(F)F)cc(-c2ccnc3cc(Cn4c(=O)ccn(C)c4=O)sc23)c1OC1CCNCC1 [Example 446, 1-methyl-3-[[7-[3-methyl-2-(4-piperidyloxy)-5-(trifluoromethyl)phenyl]thieno[3,2-b]pyridin-2-yl]methyl]pyrimidine-2,4-dione]",< 1000 nM
